{"source": "patent US8192962B2", "about": "“Processes for detecting toxic substances” (Daikin Industries, Ltd., priority 2001, dated 2012)", "system": "Metabolism protein genes", "assay": "DNA chip mRNA expression in yeast, metabolism protein genes (Table 7)", "type": "cell-based, Saccharomyces cerevisiae S288C", "procedure": "Yeast (Saccharomyces cerevisiae S288C (α SUC2mal mel gap2 CUP1)) were incubated at 25° C. on YPD medium (yeast extract 1%, polypepton 2%, glucose 2%). One of toxic chemical substances was added to the cells at logarithmic growth phase, and the cells were further incubated for two hours. Cells were cultured without any chemical substance in the same condition, and were used as control. Concentrations of the chemical substances were defined to inhibit the growth of the yeast but not lead to death.\nAfter completion of the incubation, the culture was centrifuged to collect the cells. To the cells, sodium acetate buffer (50 mM sodium acetate, 10 mM EDTA, 1% SDS) was added, and the mixture was shaken at 65° C. for five minutes, followed by returning to room temperature, and obtaining the supernatant, of which the procedures were repeated two times. To the supernatant, ½ amount of a solution of phenol/chloroform was added, and the mixture was centrifuged to give a supernatant, which was added with an equal amount of chloroform, and the mixture was centrifuged to give a supernatant. To the supernatant, an equal amount of isopropanol containing 0.3 M sodium acetate was added, and the mixture was allowed to stand at room temperature for 30 minutes, after which the mixture was centrifuged to give a sediment of the whole RNAs. Seventy % ethanol was added to the sediment, and the mixture was again centrifuged to give a sediment, which was then dried and dissolved in water. mRNA was isolated from the whole RNAs as followings. In view of the fact that a poly A chain is attached to the 3′ terminus of mRNA, a polynucleotide having a poly T structure which was immobilized on the surface of latex beads was used to trap the mRNA, and then the mRNA was washed and eluted with spine column (Oligotex-dT30<Super>mRNA Purification Kit, Takara). Reverse transcription of the mRNA was conducted with a reverse transcriptase (Super Script II Reverse Transcriptase; catalogue No. 18064-014, GibcoBRL) using fluorescence-labeled nucleotides to give cDNAs that were introduced with Cy3-dUTP or Cy5-dUTP during the reverse transcription.\nThe labeled cDNAs were dissolved in TE buffer (10mM Tris-HCl/1 mM EDTA, pH8.0), and the solution was dropped on the DNA chip containing the whole genes of yeast (DNA Chip Research Inc. Japan) so that the cDNAs were hybridized on the DNA chip at 65° C. for over 12 hours. The fluoresces intensity of the DNA chip was read with a scanner, and the ratio relative to the fluorescence intensity resulting from the absence of chemical substance was estimated as the following, which is shown in Tables 1 to 9: […]"}
{"smiles": "C[S+](C)[O-]", "note": "[(15), dimethylsulfoxide]", "values": [{"measurement": "The level of expressed mRNA in the presence of chemical substance/The level of expressed mRNA in the absence of chemical substance", "setting": "yeast gene YAL012W", "result": 3.1}, {"measurement": "The level of expressed mRNA in the presence of chemical substance/The level of expressed mRNA in the absence of chemical substance", "setting": "yeast gene YAL038W", "result": 3.1}, {"measurement": "The level of expressed mRNA in the presence of chemical substance/The level of expressed mRNA in the absence of chemical substance", "setting": "yeast gene YAL044C", "result": 0.7}, {"measurement": "The level of expressed mRNA in the presence of chemical substance/The level of expressed mRNA in the absence of chemical substance", "setting": "yeast gene YAL054C", "result": 0.9}, {"measurement": "The level of expressed mRNA in the presence of chemical substance/The level of expressed mRNA in the absence of chemical substance", "setting": "yeast gene YAR071W", "result": 1.1}, {"measurement": "The level of expressed mRNA in the presence of chemical substance/The level of expressed mRNA in the absence of chemical substance", "setting": "yeast gene YBL001C", "result": 1.0}, {"measurement": "level of expressed mRNA in the presence/in the absence of chemical substance", "setting": "yeast gene YBR003W", "result": 0.7}, {"measurement": "level of expressed mRNA in the presence/in the absence of chemical substance", "setting": "yeast gene YBR011C", "result": 2.1}, {"measurement": "The level of expressed mRNA in the presence of chemical substance/The level of expressed mRNA in the absence of chemical substance", "setting": "yeast gene YBR014C", "result": 1.2}, {"measurement": "level of expressed mRNA in the presence/in the absence of chemical substance", "setting": "yeast gene YBR020W", "result": 1.3}, {"measurement": "The level of expressed mRNA in the presence of chemical substance/The level of expressed mRNA in the absence of chemical substance", "setting": "yeast gene YBR023C", "result": 2.8}, {"measurement": "The level of expressed mRNA in the presence of chemical substance/The level of expressed mRNA in the absence of chemical substance", "setting": "yeast gene YBR029C", "result": 3.5}, {"measurement": "The level of expressed mRNA in the presence of chemical substance/The level of expressed mRNA in the absence of chemical substance", "setting": "yeast gene YBR035C", "result": 0.7}, {"measurement": "The level of expressed mRNA in the presence of chemical substance/The level of expressed mRNA in the absence of chemical substance", "setting": "yeast gene YBR068C", "result": 1.6}, {"measurement": "The level of expressed mRNA in the presence of chemical substance/The level of expressed mRNA in the absence of chemical substance", "setting": "yeast gene YBR111C", "result": 0.7}, {"measurement": "The level of expressed mRNA in the presence of chemical substance/The level of expressed mRNA in the absence of chemical substance", "setting": "yeast gene YBR183W", "result": 1.1}, {"measurement": "The level of expressed mRNA in the presence of chemical substance/The level of expressed mRNA in the absence of chemical substance", "setting": "yeast gene YBR256C", "result": 1.6}, {"measurement": "The level of expressed mRNA in the presence of chemical substance/The level of expressed mRNA in the absence of chemical substance", "setting": "yeast gene YCL009C", "result": 6.5}, {"measurement": "level of expressed mRNA in the presence/in the absence of chemical substance", "setting": "yeast gene YCR010C", "result": 1.2}, {"measurement": "level of expressed mRNA in the presence/in the absence of chemical substance", "setting": "yeast gene YCR034W", "result": 0.9}, {"measurement": "The level of expressed mRNA in the presence of chemical substance/The level of expressed mRNA in the absence of chemical substance", "setting": "yeast gene YCR037C", "result": 1.0}, {"measurement": "The level of expressed mRNA in the presence of chemical substance/The level of expressed mRNA in the absence of chemical substance", "setting": "yeast gene YCR048W", "result": 3.1}, {"measurement": "The level of expressed mRNA in the presence of chemical substance/The level of expressed mRNA in the absence of chemical substance", "setting": "yeast gene YCR098C", "result": 11.0}, {"measurement": "The level of expressed mRNA in the presence of chemical substance/The level of expressed mRNA in the absence of chemical substance", "setting": "yeast gene YDL021W", "result": 0.7}, {"measurement": "The level of expressed mRNA in the presence of chemical substance/The level of expressed mRNA in the absence of chemical substance", "setting": "yeast gene YDL022W", "result": 0.9}, {"measurement": "level of expressed mRNA in the presence/in the absence of chemical substance", "setting": "yeast gene YDR050C", "result": 1.9}, {"measurement": "level of expressed mRNA in the presence/in the absence of chemical substance", "setting": "yeast gene YDR073W", "result": 0.8}, {"measurement": "level of expressed mRNA in the presence/in the absence of chemical substance", "setting": "yeast gene YDR123C", "result": 1.2}, {"measurement": "level of expressed mRNA in the presence/in the absence of chemical substance", "setting": "yeast gene YDR178W", "result": 0.7}, {"measurement": "level of expressed mRNA in the presence/in the absence of chemical substance", "setting": "yeast gene YDR277C", "result": 0.4}, {"measurement": "level of expressed mRNA in the presence/in the absence of chemical substance", "setting": "yeast gene YDR284C", "result": 0.9}, {"measurement": "level of expressed mRNA in the presence/in the absence of chemical substance", "setting": "yeast gene YDR345C", "result": 0.8}, {"measurement": "The level of expressed mRNA in the presence of chemical substance/The level of expressed mRNA in the absence of chemical substance", "setting": "yeast gene YDR380W", "result": 2.4}, {"measurement": "level of expressed mRNA in the presence/in the absence of chemical substance", "setting": "yeast gene YDR400W", "result": 0.8}, {"measurement": "level of expressed mRNA in the presence/in the absence of chemical substance", "setting": "yeast gene YDR408C", "result": 1.0}, {"measurement": "The level of expressed mRNA in the presence of chemical substance/The level of expressed mRNA in the absence of chemical substance", "setting": "yeast gene YDR410C", "result": 1.2}, {"measurement": "level of expressed mRNA in the presence/in the absence of chemical substance", "setting": "yeast gene YDR483W", "result": 1.5}, {"measurement": "The level of expressed mRNA in the presence of chemical substance/The level of expressed mRNA in the absence of chemical substance", "setting": "yeast gene YDR487C", "result": 1.0}, {"measurement": "The level of expressed mRNA in the presence of chemical substance/The level of expressed mRNA in the absence of chemical substance", "setting": "yeast gene YDR502C", "result": 8.2}, {"measurement": "The level of expressed mRNA in the presence of chemical substance/The level of expressed mRNA in the absence of chemical substance", "setting": "yeast gene YDR516C", "result": 0.4}, {"measurement": "The level of expressed mRNA in the presence of chemical substance/The level of expressed mRNA in the absence of chemical substance", "setting": "yeast gene YEL011W", "result": 0.4}, {"measurement": "level of expressed mRNA in the presence/in the absence of chemical substance", "setting": "yeast gene YEL063C", "result": 1.3}, {"measurement": "level of expressed mRNA in the presence/in the absence of chemical substance", "setting": "yeast gene YER015W", "result": 0.8}, {"measurement": "The level of expressed mRNA in the presence of chemical substance/The level of expressed mRNA in the absence of chemical substance", "setting": "yeast gene YER026C", "result": 4.0}, {"measurement": "The level of expressed mRNA in the presence of chemical substance/The level of expressed mRNA in the absence of chemical substance", "setting": "yeast gene YER053C", "result": 1.1}]}
